Literature values, collected in patent US7939102B2, “Controlled release formulation of lamotrigine” (Torrent Pharmaceuticals Ltd., priority 2003, dated 2011).

Experiments:
[1] = not given; remark: listed apart in the source
[2] = system: seizures; details: acute and chronic studies in humans (Betts et al, 1991)

dose dependence of plasma concentrations (Ramsay RE, 1991): vary linearly with the dose
increase of plasma concentrations with concomitant sodium valproate (valproate reduces hepatic clearance, for a given dose): approximately two fold
patients reporting nausea and vomiting ([1]; first 18 weeks of treatment, mean concentration of 6.00 to 7.99 μg/ml): 16.7%
discontinuation of therapy due to rash ([1]; placebo-controlled trials): 1%
patients with rash ([1]; placebo-controlled trials): 10%
SMILES: Nc1nnc(-c2cccc(Cl)c2Cl)c(N)n1 [lamotrigine, 3,5-diamino-6(2,3-dichlorophenyl)-1,2,4-triazine]
plasma levels at which side effects were reported ([1]; Binnie et al., 1987, side effects only in patients above this level): above 3 μg/ml
incidence of side effects (dizziness, ataxia, diplopia, somnolence, headache, asthenia) ([1]; Ramsay RE, 1991): around 10%
patients reporting headache and ataxia ([1]; first 18 weeks of treatment, at >10 μg/ml): 100%
patients removed from clinical trials because of adverse experiences ([1]; rash, nausea/vomiting, CNS-related events): 8.6%
lamotrigine levels effective in controlling seizures [2]: 1 to 3 µg/mL
